Test results: US20250320228A1, “PYRIDO[3,2-D]PYRIMIDINES AS HPK1 INHIBITORS” (Merck Patent GmbH, priority 2022, published 2025)
Blank lines part the entries; values can stand above or below the compound they belong to.

Assays:
[1] = molecular target: full-length human HPK1 (MAP4K1) (Homo sapiens (Human), UniProt Q92918); experiment: HPK1 kinase assay (biochemical, ADP-Glo); conditions: GST-HPK1 3.2 nM, 10 μM ATP, MBP substrate, ADP-Glo; read-out: HPK1 enzymatic IC50
Outline: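 GST-tagged full-length human HPK1 from Sf21 baculovirus cells (3.2 nM in enzyme mix; 50 mM HEPES pH 7.5, 10 mM MgCl2) was preincubated 15 min at RT with compound. Reaction was started with Start-Mix (10 μM ATP, 3.235 μM MBP) and run 120 min. ADP was read by ADP-Glo luminescence; IC50 came from 10-point % inhibition.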

HPK1 pSLP76 (Ser376) = experiment: Cellular assay phospho-SLP-76 (Ser376); assay type: cell-based, human; conditions: SLP76 Ser376 phosphorylation after αCD3/αCD28 stimulation; Jurkat (human) or EL-4 (mouse) cells, table does not say which; read-out: HPK1 pSLP76 IC50
Outline: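 Jurkat (human) and EL-4 (mouse) cells preincubated 60 min with compound, then stimulated with αCD3/αCD28 Dynabeads at 37 °C (Jurkat 15 min; EL-4 30 min). SLP76 Ser376 phosphorylation in lysate read by AlphaLISA SureFire (Jurkat) or HTRF (EL-4, 19 h); IC50 from 10-point dilutions.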

Chain of full-length human HPK1 (MAP4K1) (Q92918 whole entry): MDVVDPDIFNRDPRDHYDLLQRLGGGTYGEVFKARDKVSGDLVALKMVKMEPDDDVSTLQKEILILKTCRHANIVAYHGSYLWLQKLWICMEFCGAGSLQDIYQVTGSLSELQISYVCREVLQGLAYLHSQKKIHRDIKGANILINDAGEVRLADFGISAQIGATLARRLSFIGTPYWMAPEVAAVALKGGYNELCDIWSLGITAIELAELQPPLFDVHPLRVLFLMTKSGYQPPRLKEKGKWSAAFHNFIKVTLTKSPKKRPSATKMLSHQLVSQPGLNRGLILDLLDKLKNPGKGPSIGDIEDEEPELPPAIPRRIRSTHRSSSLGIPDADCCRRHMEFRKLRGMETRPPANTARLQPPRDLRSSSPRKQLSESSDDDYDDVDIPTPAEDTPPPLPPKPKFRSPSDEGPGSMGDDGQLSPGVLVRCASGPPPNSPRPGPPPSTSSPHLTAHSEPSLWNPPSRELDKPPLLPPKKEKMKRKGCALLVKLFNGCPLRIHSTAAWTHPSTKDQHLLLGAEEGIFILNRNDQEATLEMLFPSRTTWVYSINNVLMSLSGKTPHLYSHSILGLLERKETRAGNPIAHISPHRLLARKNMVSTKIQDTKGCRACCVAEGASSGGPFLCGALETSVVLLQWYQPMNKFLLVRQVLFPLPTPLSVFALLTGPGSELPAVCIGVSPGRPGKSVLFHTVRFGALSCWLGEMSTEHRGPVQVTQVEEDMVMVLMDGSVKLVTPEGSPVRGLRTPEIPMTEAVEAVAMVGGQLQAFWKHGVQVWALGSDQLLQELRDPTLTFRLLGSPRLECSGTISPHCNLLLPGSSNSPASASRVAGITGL

Structure (SMILES): COCCOc1ccc(-c2cc(C(N)=O)c3ncnc(N[C@H]4CCCNC4)c3n2)cc1 [Example 24, (S)-6-(4-(2-methoxyethoxy)phenyl)-4-(piperidin-3-ylamino) pyrido[3,2-d]pyrimidine-8-carboxamide]
IC50 [1]: < 100 nM
IC50 (HPK1 pSLP76 (Ser376)): < 500 nM

Structure (SMILES): CC(C)(O)COc1ccc(-c2cc(C(N)=O)c3ncnc(N[C@@H]4CNCC[C@@H]4F)c3n2)cc1 [Example 38, 4-(((3R,4S)-4-fluoropiperidin-3-yl)amino)-6-(4-(2-hydroxy-2-methylpropoxy)phenyl)pyrido[3,2-d]pyrimidine-8-carboxamide]
IC50 [1]: < 100 nM
IC50 (HPK1 pSLP76 (Ser376)): < 500 nM

Structure (SMILES): CC(C)(O)COc1ccc(-c2cc(C(N)=O)c3ncnc(N[C@@H]4CNC[C@@H](F)C4)c3n2)c(C#N)c1 [Example 1, 6-(2-cyano-4-(2-hydroxy-2-methylpropoxy)phenyl)-4-(((3S,5S)-5-fluoropiperidin-3-yl)amino)pyrido[3,2-d]pyrimidine-8-carboxamide]
IC50 [1]: < 100 nM
IC50 (HPK1 pSLP76 (Ser376)): < 500 nM

Structure (SMILES): Cn1cc(-c2cc(C(N)=O)c3ncnc(N[C@@H]4CNC[C@@H](F)C4)c3n2)cc1C#N [Example 7, 6-(5-cyano-1-methyl-1H-pyrrol-3-yl)-4-{[(3S,5S)-5-fluoropiperidin-3-yl]amino}pyrido[3,2-d]pyrimidine-8-carboxamide]
IC50 [1]: < 100 nM
IC50 (HPK1 pSLP76 (Ser376)): < 500 nM

Structure (SMILES): CC(C)(O)COc1ccc(-c2cc(C(N)=O)c3ncnc(N[C@@H]4CNCC[C@H]4F)c3n2)cc1 [Example 42, 4-(((3R,4R)-4-fluoropiperidin-3-yl)amino)-6-(4-(2-hydroxy-2-methylpropoxy)phenyl)pyrido[3,2-d]pyrimidine-8-carboxamide]
IC50 [1]: < 100 nM
IC50 (HPK1 pSLP76 (Ser376)): < 500 nM

Structure (SMILES): CCn1cc(-c2cc(C(N)=O)c3ncnc(N[C@@H]4CNC[C@@H](F)C4)c3n2)c(C)n1 [Example 9, 6-(1-ethyl-3-methyl-1H-pyrazol-4-yl)-4-(((3S,5S)-5-fluoropiperidin-3-yl)amino)pyrido[3,2-d]pyrimidine-8-carboxamide]
IC50 [1]: < 100 nM
IC50 (HPK1 pSLP76 (Ser376)): < 500 nM

Structure (SMILES): CC(O)(C#N)COc1ccc(-c2cc(C(N)=O)c3ncnc(N[C@H]4CCCNC4)c3n2)cc1 (stereo partly drawn) [Example 40, 6-(4-(2-cyano-2-hydroxypropoxy)phenyl)-4-(((S)-piperidin-3-yl)amino)pyrido[3,2-d]pyrimidine-8-carboxamide]
IC50 [1]: < 100 nM
IC50 (HPK1 pSLP76 (Ser376)): > 1000 nM

The next lines start with the values.

IC50 [1]: < 100 nM
IC50 (HPK1 pSLP76 (Ser376)): > 1000 nM
Structure (SMILES): NC(=O)c1cc(-c2cnn(CC(F)F)c2)nc2c(N[C@H]3CCCNC3)ncnc12 [Example 81, 6-[1-(2,2-difluoroethyl)-1H-pyrazol-4-yl]-4-{[(3S)-piperidin-3-yl]amino}pyrido[3,2-d]pyrimidine-8-carboxamide]

IC50 [1]: < 100 nM
IC50 (HPK1 pSLP76 (Ser376)): < 500 nM
Structure (SMILES): NC(=O)c1cc(-c2ccc(OCC3(O)CCCC3)cc2)nc2c(N[C@H]3CCCNC3)ncnc12 [Example 41, (S)-6-(4-((1-hydroxycyclopentyl)methoxy)phenyl)-4-(piperidin-3-ylamino)pyrido[3,2-d]pyrimidine-8-carboxamide]

IC50 [1]: < 100 nM
IC50 (HPK1 pSLP76 (Ser376)): < 500 nM
Structure (SMILES): NC(=O)c1cc(-c2ccc(OCCCN3CCOCC3)cc2)nc2c(N[C@H]3CCCNC3)ncnc12 [Example 52, (S)-6-(4-(3-morpholinopropoxy)phenyl)-4-(piperidin-3-ylamino)pyrido[3,2-d]pyrimidine-8-carboxamide]

IC50 [1]: < 100 nM
IC50 (HPK1 pSLP76 (Ser376)): < 500 nM
Structure (SMILES): NC(=O)c1cc(-c2ccc(CN3CCOCC3)cc2)nc2c(N[C@H]3CCCNC3)ncnc12 [Example 30, 6-[4-(morpholin-4-ylmethyl)phenyl]-4-[(3S)-piperidin-3-ylamino]pyrido[3,2-d]pyrimidine-8-carboxamide]
